Test systems include RXF 393 renal; HCT-116 colon; CAKI-1 renal; SK-MEL-5 melanoma; PC-3 prostate; HCT-15 colon; OVCAR-3 ovarian; MOLT-4 leukemia; SF-295 CNS; HT29 colon; SNB-19 CNS; UO-31 renal; SR leukemia.
Experiment in all cases: NCI anticancer screen, dose series, 48 h

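1) Cells in 96-well plates. 2) Compound, 48 h, 5 concentrations. 3) Linear interpolation between surrounding doses. 4) Unreached endpoint = highest concentration. Definition used: TGI = concentration required for complete inhibition of growth.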

On to `[O-][n+]1onc(-c2ccccc2)c1CN1CCOCC1`, for which the TGI in the test with RXF 393 renal, in the test on HCT-116 colon, in the test on CAKI-1 renal, with SK-MEL-5 melanoma, with PC-3 prostate and in the test with HCT-15 colon was over 100 µM throughout. Further, the TGI is over 100 µM in the test with OVCAR-3 ovarian; 94.1 µM in the test with MOLT-4 leukemia; over 100 µM with SF-295 CNS; over 100 µM with HT29 colon; over 100 µM in the test with SNB-19 CNS; over 100 µM in the test on UO-31 renal.

With `COC1=C(N2CC2)C(=O)c2nc3n(c2C1=O)CCC3`, the TGI is 0.261 µM with RXF 393 renal; 16.9 µM in the test with SR leukemia; 1.93 µM in the test with HCT-116 colon; 2.56 µM in the test on SK-MEL-5 melanoma; 5.27 µM in the test on PC-3 prostate; 1.55 µM with HCT-15 colon. Besides, the TGI was 10.7 µM with OVCAR-3 ovarian; 2.41 µM with MOLT-4 leukemia; 2.07 µM in the test on SF-295 CNS; 1.57 µM in the test with HT29 colon; 2.92 µM in the test on SNB-19 CNS.

`Cc1nn(-c2ccccc2)c2[nH]c(=S)cnc12`: the TGI with RXF 393 renal, with SR leukemia, in the test with HCT-116 colon, with CAKI-1 renal, with PC-3 prostate and with OVCAR-3 ovarian was over 100 µM each time. The TGI in the test on MOLT-4 leukemia, in the test with SF-295 CNS, with HT29 colon, in the test on SNB-19 CNS and in the test with UO-31 renal was over 100 µM each time.

In the case of `COc1ccc2c(c1)CCc1[nH]c3ccccc3c1CCCC2`, the TGI with SR leukemia, with HCT-116 colon, in the test on CAKI-1 renal, in the test on SK-MEL-5 melanoma, in the test with PC-3 prostate and with HCT-15 colon was over 10 µM throughout. Besides, the TGI in the test on OVCAR-3 ovarian, in the test with MOLT-4 leukemia, with SF-295 CNS, in the test with HT29 colon and in the test on SNB-19 CNS was over 10 µM throughout.

As for `O=[N+]([O-])c1ccc2[nH]ncc2c1Cl`, the TGI in the test on RXF 393 renal is over 100 µM; in the test with SR leukemia it was over 100 µM; with HCT-116 colon it was 80.4 µM; with SK-MEL-5 melanoma it was 27 µM; in the test with PC-3 prostate it was 90.7 µM; in the test with HCT-15 colon, over 100 µM. Further, the TGI is over 100 µM in the test on OVCAR-3 ovarian; 72.6 µM with MOLT-4 leukemia; over 100 µM with SF-295 CNS; 77.4 µM with HT29 colon; over 100 µM in the test with SNB-19 CNS.

As to `Cc1ccc(S(=O)(=O)NC2C(=O)c3ccccc3C(=O)C2n2cnc3ccccc32)cc1` (centres undefined), the TGI was 61.8 µM in the test with RXF 393 renal; over 100 µM with SR leukemia; over 100 µM in the test on HCT-116 colon; over 100 µM in the test on CAKI-1 renal; 42.6 µM with SK-MEL-5 melanoma; 64.3 µM in the test on PC-3 prostate. For the same molecule, the TGI was over 100 µM in the test with HCT-15 colon; 15.4 µM with OVCAR-3 ovarian; 68.1 µM in the test on MOLT-4 leukemia; over 100 µM in the test with SF-295 CNS; over 100 µM in the test with HT29 colon; 89.7 µM in the test on SNB-19 CNS.

On to `COc1ccc2cc(/C=N\NC(=O)Nc3cccc4ccccc34)ccc2c1`, for which the TGI in the test with RXF 393 renal was over 100 µM; in the test on SR leukemia, 29.6 µM; with HCT-116 colon, 30.5 µM; in the test with CAKI-1 renal, 47.6 µM; with SK-MEL-5 melanoma it was over 100 µM; with PC-3 prostate, over 100 µM. Besides, the TGI was over 100 µM with HCT-15 colon; over 100 µM with MOLT-4 leukemia; over 100 µM in the test with HT29 colon; 53.5 µM in the test with SNB-19 CNS; over 100 µM with UO-31 renal.

As to `Cc1cccc(C)c1NC(=S)NC=C(C(N)=O)C(N)=O`, the TGI with RXF 393 renal, with HCT-116 colon, with CAKI-1 renal, in the test on SK-MEL-5 melanoma, with PC-3 prostate and in the test with HCT-15 colon was over 100 µM throughout. In addition, the TGI in the test with OVCAR-3 ovarian, with MOLT-4 leukemia, in the test with SF-295 CNS, in the test with HT29 colon, in the test on SNB-19 CNS and in the test on UO-31 renal was over 100 µM in each case.

Turning to `O=C(O)c1ccc(Nc2nc3ccccc3nc2-c2cccs2)cc1`, the TGI with RXF 393 renal, in the test with SR leukemia, in the test on HCT-116 colon, in the test with CAKI-1 renal, in the test on SK-MEL-5 melanoma and with PC-3 prostate was over 100 µM throughout. Further, the TGI with HCT-15 colon, in the test with OVCAR-3 ovarian, in the test on MOLT-4 leukemia, with SF-295 CNS, in the test with HT29 colon and with UO-31 renal was over 100 µM in each case.

As for `O=c1c2cccnc2cc(-c2ccccc2)n1CCO`, the TGI with RXF 393 renal, in the test on SR leukemia, with HCT-116 colon, in the test with SK-MEL-5 melanoma, in the test on PC-3 prostate and in the test on HCT-15 colon was over 100 µM throughout. The TGI with OVCAR-3 ovarian, in the test on MOLT-4 leukemia, in the test with SF-295 CNS, in the test with HT29 colon, with SNB-19 CNS and in the test with UO-31 renal was over 100 µM throughout.

For `COc1cc(NP(=O)(Oc2ccccc2)Oc2ccccc2)ccc1Nc1c2ccccc2nc2c1[nH]c1ccccc12`, the TGI with RXF 393 renal was 14.1 µM; with HCT-116 colon it was 63.8 µM; in the test on CAKI-1 renal, 17.3 µM; with SK-MEL-5 melanoma it was 10.3 µM; in the test on PC-3 prostate it was over 89.7 µM; in the test with HCT-15 colon, over 37.3 µM. Moreover, the TGI is 4.82 µM in the test on OVCAR-3 ovarian; 0.204 µM in the test with MOLT-4 leukemia; 13.1 µM in the test on SF-295 CNS; 2.96 µM with HT29 colon; over 100 µM with SNB-19 CNS; 16.6 µM with UO-31 renal.

As for `CC1=NN(C(=O)c2ccccc2O)C(=O)/C1=C/c1ccccc1O`, the TGI was 0.924 µM in the test on RXF 393 renal; 65.4 µM with SR leukemia; over 29.9 µM in the test with HCT-116 colon; over 27.3 µM in the test on CAKI-1 renal; 14.2 µM in the test on SK-MEL-5 melanoma; over 100 µM in the test with PC-3 prostate. Besides, the TGI in the test with HCT-15 colon is 21.2 µM; with MOLT-4 leukemia, 51 µM; in the test with SF-295 CNS, over 100 µM; in the test with HT29 colon, over 100 µM; in the test with SNB-19 CNS, over 100 µM; in the test with UO-31 renal it was 1.56 µM.

(Values after PubChem BioAssay (NCI).)
